Literature values in patent US20160000731A1, “SORE-THROAT COMPOSITIONS AND RELATED METHODS” (Xlear, Inc., priority 2014, published 2016).

Tests used:
dental caries = settings: regular consumption
Streptococcus pneumonia = settings: in vitro, during its logarithmic growth phase

OC[C@@H](O)[C@H](O)[C@@H](O)CO [Xylitol]
incidence of dental caries (dental caries): reduce the incidence of dental caries
growth of Streptococcus pneumonia (Streptococcus pneumonia): inhibit the growth
